These are literature values, as cited in patent US9078816B2, “Buccal, polar and non-polar spray containing ondansetron” (Suda Ltd., priority 1997, dated 2015).

For series [1] the following is noted: include headaches, constipation, and dizziness.

As for `Cc1nccn1CC1CCc2c(c3ccccc3n2C)C1=O` (stereo not drawn) [Ondansetron], the metabolism entry (liver) is given as “extensively metabolized by the liver”. For the same compound, the oral bioavailability result (oral administration) is recorded as “about 60%”. Further, in series [1], the adverse effects result is “mild”.
